Measured values reported in patent US11026972B2, “Methods for generating macrophages with enhanced cancer phagocytosis” (Georgia State University Research Foundation, Inc., priority 2016, dated 2021).

Columns and labels:
PEMs = test: Cell signaling inhibitors on LPS/cytokine- or PMA-induced PEM phagocytic activation toward RBCs; type: cell-based, mouse; conditions: for LPS and cytokine-induced phagocytic activation: PEMs treated with LPS and cytokines in the presence of inhibitors
Procedure: FIGS. 5A-5H include data related to our experiments on the role of Syk in phagocytic activation. […] PEMs were treated with LPS and cytokines in the presence of various inhibitors. After washing, inhibitor-free macrophages were tested for phagocytosis toward RBCs. […] PEMs treated with LPS and activating cytokines, or together with IL-10, were tested for total Syk and phosphorylated Syk (Syk^pY, specific at Y519/520). FIG. 5D describes PMA-induced macrophages phagocytosis toward RBCs. WT and SIRPα^−/− PEMs were treated with PMA (37° C., 30 min) before testing phagocytosis toward RBCs. FIG. 5E is a schematic depiction of PKC-Syk-mediated macrophage phagocytic activation toward self. […] Left: Inhibition of Syk by piceatannol and R406 prevented PMA-induced phagocytic activation. […] Error bars are ±SEM. ***P<0.001 vs. the respective controls. […] LPS-treated WT PEMs were further briefly treated with pervanadate before testing for phagocytosis toward RBCs. Error bars are ±SEM. ***P<0.001 vs. the respective controls. […] Data presented in each panel represent at least three independent experiments with n≥4, if applicable.
Ex vivo macrophage phagocytosis: Mouse spleens were harvested and minced in cold HBSS followed by passing through nylon meshes. The spleen cells in suspensions were collected by centrifugation followed by washing. After lysis of RBC, splenocytes were plated in cell culture dishes in DMEM with 10% FBS and cultured for 2 h followed by removal of non-adherent cells. The adherent cells, ˜70% being macrophages as determined by anti-F4/80 staining, were tested for phagocytosis. For phagocytosis of RBC or other tissue cells, targeted cells were labeled with CFSE prior to addition into the macrophage-containing wells. Macrophages and target cells, at a ratio of 1:5-10 for RBC or 1:1-2 for other cells, were co-incubated for 30 min at 37° C. followed by gently washing. Macrophage phagocytosis of target cells was then analyzed by fluorescence microscopy and/or by FACS. […] Alternatively, the freshly isolated splenocytes in suspension were incubated with CFSE-labeled RBC and other phagocytic targets for 30 min at 37° C. Macrophage phagocytosis was then determined by FACS after labeling macrophages with anti-F4/80. To test phagocytosis of apoptotic cells, B16 cells were irradiated by UV for 150 seconds at 50 J/m^2 strength. Apoptosis was analyzed at 2, 4, 6, 8 and 18 h post UV irradiation by labeling of the cells with anti-phosphatidylserine (PS) antibody (data not shown) or FITC-conjugated annexin V (data not shown). Cells that were confirmed to be apoptotic were trypsinized, labeled with CFSE, and then co-incubated with macrophages for 30 min at 37° C. After gentle washing, phagocytosis was analyzed by fluorescence microscopy and/or FACS. To test phagocytosis of bacteria and the fungal product zymosan, AlexaFluor-conjugated E.coli strain […] (2 μl suspension, ˜2 μg) or zymosan bioparticles (1 μl suspension, ˜2 μg) (both from Invitrogen) were incubated with macrophages for 30 min followed by washing and analyses. Similar procedures were performed to test phagocytosis of macrophages from various sources. To obtain peritoneal macrophages, peritonea of mice were lavaged by sterile PBS followed by centrifugation to collect cells. Cells suspended in DMEM with 10% FBS were then plated in cell culture dishes and incubated for 2 h at 37° C. followed by removal of non-adherent cells. To produce bone marrow-derived macrophages, freshly isolated bone marrow cells were culture in macrophage colony-stimulating factor (MCSF, ˜10 ng/ml)-containing MEM with 10% FBS for five-six days and macrophage differentiation was confirmed by anti-F4/80 staining.

[1] = tested on: splenic macrophages, PEMs and BMDMs; test: Ex vivo macrophage phagocytosis toward RBCs and other self-cells after activation; type: cell-based, mouse; conditions: for ability to induce macrophage phagocytosis toward self: PEM, lack of the CD47-SIRPα-mediated inhibition
Procedure: FIGS. 3A-3H include data related to our experiments assaying macrophage phagocytosis ex vivo. FIGS. 3A and 3B show macrophage phagocytosis of RBCs. Freshly isolated splenic macrophages (MØ) and peritoneal macrophages (PEM) and in vitro-derived BMDM (bone marrow-derived macrophages) were tested for phagocytosis toward CFSE-labeled Cd47^+ or Cd47^− RBCs. […] FIGS. 3F and 3G illustrate LPS and IL-17-activated PEM phagocytosis toward splenocytes (FIG. 3F), B16, and EL4 (FIG. 3G). Error bars are ±SEM. **P<0.01, ***P<0.001 vs. no treatment controls. […] PEM lavaged without (ctl.) or with Brewer thioglycollate (3%, i.p.) elicitation was tested. Error bars are ±SEM. ***P<0.001 vs. control PEM. Data presented in each panel represent at least three independent experiments with n≥4, if applicable.
FIGS. 4A-4E include data related to our experiments on macrophage phagocytic plasticity. FIG. 4A is a panel of illustrative line graphs showing that IL-10 inhibits macrophage phagocytosis toward “self.” PEMs were treated with LPS and activating cytokines along with various concentrations of IL-10 before testing their ability to phagocytose RBCs. FIG. 4B illustrates the phagocytic plasticity of WT red pulp macrophages. […] Treatments of cultured macrophages with LPS and IL-17 re-elicited their phagocytosis toward RBCs. […] Error bars are ±SEM. ***P<0.001 vs. freshly isolated splenic macrophages. FIG. 4D includes microscopic images of RBC phagocytosis by LPS- and IL-17-treated splenic macrophages. […] WT PEMs treated with LPS or IL-17 were further treated with Cd47^+ RBCs or Cd47-AP (10 min, 37° C.) followed by cell lysis, SIRPα immunoprecipitation, and WB detection of SIRPα phosphorylation (SIRPα^pY) and SHP-1 association. Data presented in each panel represent at least three independent experiments with n≥4, if applicable.
Ex vivo macrophage phagocytosis: Mouse spleens were harvested and minced in cold HBSS followed by passing through nylon meshes. The spleen cells in suspensions were collected by centrifugation followed by washing. After lysis of RBC, splenocytes were plated in cell culture dishes in DMEM with 10% FBS and cultured for 2 h followed by removal of non-adherent cells. The adherent cells, ˜70% being macrophages as determined by anti-F4/80 staining, were tested for phagocytosis. For phagocytosis of RBC or other tissue cells, targeted cells were labeled with CFSE prior to addition into the macrophage-containing wells. Macrophages and target cells, at a ratio of 1:5-10 for RBC or 1:1-2 for other cells, were co-incubated for 30 min at 37° C. followed by gently washing. Macrophage phagocytosis of target cells was then analyzed by fluorescence microscopy and/or by FACS. To better recognize macrophages, macrophages in wells were labeled with an anti-F4/80 or an anti-CD11b antibody. Alternatively, the freshly isolated splenocytes in suspension were incubated with CFSE-labeled RBC and other phagocytic targets for 30 min at 37° C. Macrophage phagocytosis was then determined by FACS after labeling macrophages with anti-F4/80. To test phagocytosis of apoptotic cells, B16 cells were irradiated by UV for 150 seconds at 50 J/m^2 strength. Apoptosis was analyzed at 2, 4, 6, 8 and 18 h post UV irradiation by labeling of the cells with anti-phosphatidylserine (PS) antibody (data not shown) or FITC-conjugated annexin V (data not shown). Cells that were confirmed to be apoptotic were trypsinized, labeled with CFSE, and then co-incubated with macrophages for 30 min at 37° C. After gentle washing, phagocytosis was analyzed by fluorescence microscopy and/or FACS. To test phagocytosis of bacteria and the fungal product zymosan, AlexaFluor-conjugated E.coli strain […] (2 μl suspension, ˜2 μg) or zymosan bioparticles (1 μl suspension, ˜2 μg) (both from Invitrogen) were incubated with macrophages for 30 min followed by washing and analyses. Similar procedures were performed to test phagocytosis of macrophages from various sources. […]

Molecule: O=C(O)CN(CCN(CC(=O)O)CC(=O)O)CC(=O)O [EDTA]
- macrophage phagocytic activation (PEMs; presence of EDTA): hindered macrophage phagocytic activation

Molecule: COc1cc2ncnc(Nc3ccc(O)cc3)c2cc1OC [JAK3 inhibitor I]
- LPS and cytokine-induced phagocytic activation (PEMs): diminished phagocytic activation induced by certain, but not all stimuli

Molecule: Cc1ccc(NCCCc2ccccc2)c(N)c1 [JSH-23]
- LPS and cytokine-induced phagocytic activation (PEMs): diminished phagocytic activation induced by certain, but not all stimuli

Molecule: C/C(O)=C(\C#N)C(=O)Nc1cc(Br)ccc1Br [LFM-13]
- LPS and cytokine-induced phagocytic activation (PEMs): diminished phagocytic activation induced by certain, but not all stimuli

Molecule: COc1cccc(-c2cc(=O)c3ccccc3o2)c1N [PD98059]
- LPS and cytokine-induced phagocytic activation (PEMs): diminished phagocytic activation induced by certain, but not all stimuli

Molecule: Cc1ccc(-c2nn(C(C)(C)C)c3ncnc(N)c23)cc1 [PP1]
- LPS and cytokine-induced phagocytic activation (PEMs): diminished phagocytic activation induced by certain, but not all stimuli

Molecule: CC(C)(C)n1nc(-c2ccc(Cl)cc2)c2c(N)ncnc21 [PP2]
- LPS and cytokine-induced phagocytic activation (PEMs): diminished phagocytic activation induced by certain, but not all stimuli

Molecule: COc1cc(Nc2ncc(F)c(Nc3ccc4c(n3)NC(=O)C(C)(C)O4)n2)cc(OC)c1OC [R406]
- PEM activation (PEMs; 400 nM, all stimuli): nearly completely eliminated PEM activation induced by all stimuli
- PMA-induced PEM phagocytosis (PEMs; Syk inhibition): eliminated the PMA-induced PEM phagocytosis
- LPS-induced activation of PEM phagocytosis toward RBC (PEMs; dose dependence): dose-dependently inhibited

Molecule: C[S+]([O-])c1ccc(-c2nc(-c3ccncc3)c(-c3ccc(F)cc3)[nH]2)cc1 (centres unmarked) [SB203580]
- LPS and cytokine-induced phagocytic activation (PEMs): diminished phagocytic activation induced by certain, but not all stimuli

Molecule: COc1ccc2c(c1)CC[C@@H]1[C@@H]2CC[C@]2(C)[C@@H](NCCCCCCN3C(=O)C=CC3=O)CC[C@@H]12 [U73122]
- LPS and cytokine-induced phagocytic activation (PEMs): diminished phagocytic activation induced by certain, but not all stimuli

Molecule: JAK inhibitor I
- LPS and cytokine-induced phagocytic activation (PEMs): diminished phagocytic activation induced by certain, but not all stimuli

Molecule: pervanadate
- Cd47-dependent phagocytic recognition ([1]; LPS-treated WT PEMs briefly treated with pervanadate): eliminates Cd47-dependent phagocytic recognition

Molecule: tumor necrosis factor-alpha [TNFα]
- ability to induce macrophage phagocytosis toward self [1]: have the ability to induce macrophage phagocytosis toward self

B1: IL-1β: recombinant murine cytokine, PeproTech (protein, UniProt P10749 118-269, looked up)
Interleukin-1 beta: VPIRQLHYRLRDEQQKSLVLSDPYELKALHLNGQNINQQVIFSMSFVQGEPSNDKIPVALGLKGKNLYLSCVMKDGTPTLQLESVDPKQYPKKKMEKRFVFNKIEVKSKVEFESAEFPNWYISTSQAEHKPVFLGNNSGQDIIDFTMESVSS
- ability to induce macrophage phagocytosis toward self [1]: have the ability to induce macrophage phagocytosis toward self

B2: IFNγ: recombinant murine cytokine, PeproTech (protein, UniProt P01580 23-155, looked up)
Interferon gamma: HGTVIESLESLNNYFNSSGIDVEEKSLFLDIWRNWQKDGDMKILQSQIISFYLRLFEVLKDNQAISNNISVIESHLITTFFSNSKAKKDAFMSIAKFEVNNPQVQRQAFNELIRVVHQLLPESSLRKRKRSRC
- ability to induce macrophage phagocytosis toward self [1]: not
